Test systems include 786-0; LOX IMVI; KM12; SW-620; SK-MEL-5; NCI/ADR-RES; Hs-578T; HCT-15; UACC-257; OVCAR-4; HOP-62; T47D; HL-60; K562; HOP-92; MDA-N; CAKI-1; RXF 393; Malme-3M.
Common to all, as to assay: inhibition of tumour cell growth, NCI panel, 48 h

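The compound was tested at five concentrations on cells cultured in 96-well plates, with a 48-hour exposure period. GI50: concentration for 50% inhibition of growth.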 Activity calls are given as the source filed them. No stated cut-off is given here; in the data, active = GI50 up to about 1.1 µM and inactive = higher.

As for `C/C(=N/S(=O)(=O)c1ccc(Cl)c(Cl)c1)OCC(C)(C)C`, the GI50 in the assay on 786-0, in the assay with LOX IMVI, in the assay on KM12, with SW-620, in the assay on SK-MEL-5 and in the assay with NCI/ADR-RES was > 100 µM (inactive) each time. The GI50 with Hs-578T is > 100 µM (inactive); in the assay on HCT-15, over 100 µM; in the assay with UACC-257 it was > 100 µM (inactive); in the assay with OVCAR-4 it was > 100 µM (inactive); in the assay on HOP-62, > 100 µM (inactive); in the assay with T47D it was > 100 µM (inactive). Further, the GI50 was 6.98 µM (inactive) in the assay on HL-60; > 100 µM (inactive) with K562; > 100 µM (inactive) with HOP-92; > 100 µM (inactive) in the assay with MDA-N; > 100 µM (inactive) in the assay on CAKI-1; > 100 µM (inactive) in the assay on RXF 393. Further, the GI50 in the assay with Malme-3M is > 100 µM (inactive).
For the molecule `COC(=O)c1c(OC(C)=O)ccc2c1c1c(OC(C)=O)c3ccccc3c(OC(C)=O)c1n2C`, the GI50 in the assay on 786-0 was 26.4 µM (inactive); in the assay on KM12, 20.5 µM (inactive); in the assay on SK-MEL-5, 6.04 µM (inactive); in the assay on NCI/ADR-RES it was 30.1 µM (inactive); in the assay with Hs-578T, 18.3 µM (inactive); in the assay on HCT-15, 27.9 µM. The GI50 in the assay with OVCAR-4 is 19.4 µM (inactive); with HOP-62, 24.4 µM (inactive); with T47D it was 12.3 µM (inactive); with HL-60 it was 22.1 µM (inactive); with K562, 19.2 µM (inactive); with HOP-92, 4.39 µM (inactive). In addition, the GI50 with MDA-N is 32.2 µM (inactive); in the assay on CAKI-1 it was 17.8 µM (inactive); in the assay on RXF 393, 29.5 µM (inactive); in the assay on Malme-3M it was 37.7 µM (inactive).
Regarding `O=C1CC2(CCCc3sccc32)C(=O)N1` (stereo not given), the GI50 in the assay with 786-0, in the assay on LOX IMVI, with KM12, with SW-620, in the assay on SK-MEL-5 and with NCI/ADR-RES was > 100 µM (inactive) each time. Moreover, the GI50 with Hs-578T is > 100 µM (inactive); with HCT-15 it was over 100 µM; with UACC-257, > 100 µM (inactive); in the assay on OVCAR-4, > 100 µM (inactive); in the assay on HOP-62, > 100 µM (inactive); in the assay with T47D, > 100 µM (inactive). The GI50 in the assay on HL-60, in the assay with K562, in the assay with HOP-92, in the assay with MDA-N, in the assay with CAKI-1 and in the assay on RXF 393 was > 100 µM (inactive) throughout. For the same molecule, the GI50 in the assay with Malme-3M is > 100 µM (inactive).
Turning to `CCC(=O)NC(NNS(=O)(=O)c1ccc(C)cc1)(C(F)(F)F)C(F)(F)F`, the GI50 with 786-0 is > 100 µM (inactive); with LOX IMVI, > 100 µM (inactive); with KM12, 54.1 µM (inactive); with SW-620, 33.7 µM (inactive); in the assay with SK-MEL-5 it was 50 µM (inactive); in the assay with NCI/ADR-RES, 27.3 µM (inactive). The GI50 was 34.2 µM (inactive) in the assay with Hs-578T; 32.1 µM with HCT-15; 52 µM (inactive) in the assay on UACC-257; 65.2 µM (inactive) with HOP-62; 96.8 µM (inactive) in the assay on T47D; 46.6 µM (inactive) with HL-60. For the same molecule, the GI50 with K562 was 30.6 µM (inactive); in the assay on HOP-92, 37.6 µM (inactive); in the assay on MDA-N, 18.5 µM (inactive); in the assay with CAKI-1, > 100 µM (inactive); in the assay with RXF 393, 23.2 µM (inactive); with Malme-3M, 59.4 µM (inactive).
As to `O=C1C(Cl)=C(OCCCCl)C(=O)c2c(O)ccc(O)c21`, the GI50 in the assay with 786-0 is 2.04 µM (inactive); in the assay on LOX IMVI it was 1.76 µM (inactive); with KM12, 13.1 µM (inactive); in the assay with SW-620 it was 1.35 µM (inactive); in the assay with SK-MEL-5, 1.73 µM (inactive); with NCI/ADR-RES, 3.69 µM (inactive). The GI50 was 4.91 µM (inactive) in the assay with Hs-578T; 1.84 µM in the assay on HCT-15; 2.32 µM (inactive) with UACC-257; 2.74 µM (inactive) in the assay on OVCAR-4; 8.99 µM (inactive) in the assay with HOP-62; 2.34 µM (inactive) in the assay on T47D. Moreover, the GI50 in the assay with HL-60 is 0.0715 µM (active); in the assay on K562, 0.401 µM (active); in the assay with HOP-92 it was 1.78 µM (inactive); in the assay on MDA-N it was 1.52 µM (inactive); in the assay on CAKI-1, 1.21 µM (inactive); with RXF 393 it was 2.28 µM (inactive). For the same molecule, the GI50 in the assay with Malme-3M is 1.74 µM (inactive).
Regarding `O=C1C=C(Nc2ccc(S(=O)(=O)Nc3nccs3)cc2)c2ccccc2C1=O`, the GI50 in the assay on 786-0 is 36.6 µM (inactive); in the assay with LOX IMVI, 19.8 µM (inactive); in the assay with KM12 it was 17.8 µM (inactive); in the assay on SW-620 it was 19.4 µM (inactive); in the assay on SK-MEL-5, 19.9 µM (inactive); in the assay on NCI/ADR-RES it was 27.5 µM (inactive). The GI50 in the assay with Hs-578T was 25.8 µM (inactive); in the assay on HCT-15, 23.7 µM; in the assay with UACC-257 it was 31.6 µM (inactive); in the assay with OVCAR-4, 32.9 µM (inactive); with HOP-62, 15.4 µM (inactive); in the assay with T47D, 69.5 µM (inactive). Also, the GI50 is 24.7 µM (inactive) in the assay on HL-60; 12.1 µM (inactive) with K562; 34.5 µM (inactive) in the assay on HOP-92; 18.8 µM (inactive) in the assay on MDA-N; 26.8 µM (inactive) in the assay with CAKI-1; > 100 µM (inactive) in the assay on RXF 393. For the same molecule, the GI50 in the assay with Malme-3M was 21 µM (inactive).
With `CN1C(=O)C23CCCCC2CC1(c1ccccc1)S3` (stereo not given), the GI50 is > 100 µM (inactive) with 786-0; 79.8 µM (inactive) in the assay with LOX IMVI; > 100 µM (inactive) in the assay with KM12; > 100 µM (inactive) in the assay with SW-620; 72.3 µM (inactive) with SK-MEL-5; 38.5 µM (inactive) with NCI/ADR-RES. Moreover, the GI50 was 99.1 µM (inactive) with Hs-578T; 80 µM in the assay with HCT-15; 18.3 µM (inactive) in the assay on UACC-257; 34.2 µM (inactive) in the assay with OVCAR-4; > 100 µM (inactive) in the assay with HOP-62; 42.6 µM (inactive) in the assay on T47D. In addition, the GI50 was 35.7 µM (inactive) in the assay with HL-60; 71.1 µM (inactive) in the assay on K562; 60.7 µM (inactive) with HOP-92; > 100 µM (inactive) in the assay with MDA-N; 68.2 µM (inactive) in the assay on CAKI-1; 59.2 µM (inactive) in the assay on RXF 393. In addition, the GI50 in the assay on Malme-3M is > 100 µM (inactive).
For the molecule `CC1=CC(=O)/C(=C/N2CCNC2=S)C(=O)O1`, the GI50 was > 100 µM (inactive) with 786-0; > 100 µM (inactive) in the assay with LOX IMVI; > 100 µM (inactive) in the assay with KM12; > 100 µM (inactive) in the assay on SW-620; 97.3 µM (inactive) in the assay with SK-MEL-5; > 100 µM (inactive) in the assay on NCI/ADR-RES. For the same molecule, the GI50 in the assay on Hs-578T is > 100 µM (inactive); in the assay with HCT-15, over 100 µM; in the assay on UACC-257 it was > 100 µM (inactive); in the assay with OVCAR-4, > 100 µM (inactive); in the assay with HOP-62 it was > 100 µM (inactive); in the assay with T47D, > 100 µM (inactive). Besides, the GI50 in the assay with HL-60, in the assay with K562, in the assay on HOP-92, with MDA-N, in the assay with CAKI-1 and with RXF 393 was > 100 µM (inactive) in each case.
As to `N#CCCCCC12C3C(=O)N(c4ccccc4)C(=O)C3ON1O[C@@H]1C(=O)N(c3ccccc3)C(=O)[C@@H]12` (stereo not given in full), the GI50 in the assay on 786-0, in the assay with LOX IMVI, in the assay on KM12, in the assay with SW-620, in the assay on SK-MEL-5 and in the assay with NCI/ADR-RES was > 100 µM (inactive) in each case. Moreover, the GI50 was > 100 µM (inactive) with Hs-578T; over 100 µM in the assay with HCT-15; > 100 µM (inactive) in the assay on UACC-257; > 100 µM (inactive) in the assay with OVCAR-4; > 100 µM (inactive) in the assay with HOP-62; > 100 µM (inactive) in the assay on T47D. The GI50 in the assay on HL-60, in the assay on K562, in the assay on HOP-92, in the assay on MDA-N, in the assay with CAKI-1 and in the assay with Malme-3M was > 100 µM (inactive) throughout.
On to `CCOC(=O)/C(C(C)=O)=C(\OC(C)=O)c1ccncc1C(=O)O`, for which the GI50 in the assay with 786-0, in the assay with LOX IMVI, in the assay with KM12, in the assay with SW-620, in the assay with NCI/ADR-RES and in the assay with Hs-578T was > 100 µM (inactive) each time. Further, the GI50 in the assay on HCT-15 was over 100 µM; with UACC-257, > 100 µM (inactive); with OVCAR-4, > 100 µM (inactive); in the assay on T47D, > 100 µM (inactive); in the assay with HL-60 it was > 100 µM (inactive); with K562, > 100 µM (inactive). Also, the GI50 with HOP-92, in the assay on MDA-N, in the assay with CAKI-1, in the assay with RXF 393 and in the assay on Malme-3M was > 100 µM (inactive) in each case.
On to `Oc1c(Cl)c(Cl)c(Cl)c(Cl)c1Cl` [PENTACHLOROPHENOL], for which the GI50 in the assay with 786-0 was 21 µM (inactive); with LOX IMVI, 17.9 µM (inactive); in the assay on KM12, 19.5 µM (inactive); with SW-620, 24.5 µM (inactive); in the assay with SK-MEL-5 it was 18.3 µM (inactive); in the assay on NCI/ADR-RES it was 17.9 µM (inactive). The GI50 in the assay on Hs-578T is 35.2 µM (inactive); in the assay on HCT-15, 19.5 µM; in the assay with UACC-257 it was > 100 µM (inactive); with OVCAR-4, 21.8 µM (inactive); in the assay on HOP-62, 25.4 µM (inactive); in the assay with T47D it was 20 µM (inactive). Also, the GI50 with HL-60 was 17.5 µM (inactive); in the assay on K562 it was 26.4 µM (inactive); in the assay on HOP-92, 18.6 µM (inactive); in the assay with MDA-N, 23.2 µM (inactive); with CAKI-1, 18.3 µM (inactive); in the assay on RXF 393 it was 23.2 µM (inactive).
